Measured values reported in the SangsterLogP compilation.
Values belong to the compound of their own block, whether it stands above or below them.

Experiments:
[1] = method code SF-AS, from DOI: 10.1002/etc.5620180606
[2] = method code SF, from DOI: 10.1021/jm00167a034, PMID: 2329572; conditions: pH 7.4
[3] = method code SF-AS, from DOI: 10.1007/s001289900158, PMID: 8661463
[4] = method code SF-AS, from DOI: 10.1211/0022357001777513, PMID: 11186244; conditions: pH 7.3
[5] = method code SF, from DOI: 10.1021/jm020886c, PMID: 12852752; conditions: pH 7.4
[6] = method code SF-AS, from PMID: 640322; conditions: pH 4.0
[7] = pH 7.4
[8] = not given; remark: listed apart in the source
[9] = not given; remark: listed apart in the source
[10] = method code SF-HPLC, from DOI: 10.1023/a:1015956705293, PMID: 3244625
[11] = not given; remark: listed apart in the source
[12] = not given; remark: listed apart in the source
[13] = method code SF-HPLC, from DOI: 10.1002/jlac.1995199512305
[14] = method code SF-GLC, from DOI: 10.1021/es60155a010
[15] = from Jayashree, Bs.; Sahu, A.; MM, S.; Venugopala, K. (2006). Synthesis, characterization and determination of partition coefficient of some triazolo thiadiazinyl chlorocoumarin derivatives for their …; conditions: pH 7.4
[16] = not given; remark: listed apart in the source

Structure (SMILES): O=[N+]([O-])c1ccc(Cl)nc1Cl
logP [3]: 1.96

Structure (SMILES): FCC(F)(Cl)Cl
logP: 1.51

Structure (SMILES): Oc1ccccc1-c1c2nc(c(-c3ccccc3O)c3ccc([nH]3)c(-c3ccccc3O)c3nc(c(-c4ccccc4O)c4ccc1[nH]4)C=C3)C=C2
logD [4]: 4.58

Structure (SMILES): O=c1[nH]c2c(O)ccc(CCNCCCS(=O)(=O)CCCOCc3ccccc3)c2s1
logD [5]: 1.34

Structure (SMILES): CCCN(N=O)C(N)=O
logD [6]: 0.3

Structure (SMILES): OCC(O)COc1ccccc1-c1c2nc(c(-c3ccccc3OCC(O)CO)c3ccc([nH]3)c(-c3ccccc3OCC(O)CO)c3nc(c(-c4ccccc4OCC(O)CO)c4ccc1[nH]4)C=C3)C=C2 (stereo not given)
logD [4]: 4.67

Structure (SMILES): O=C(Cc1c[nH]c2ccc(Br)cc12)N1CCN(c2ccc([N+](=O)[O-])c3nonc23)CC1
logD [7]: 3

Structure (SMILES): COc1cc([N+](=O)[O-])cc(CC(=O)N2CCC(n3c(=O)[nH]c4ccccc43)CC2)c1OC
logD [7]: 2.4

Structure (SMILES): NC(=O)c1ccc2c(ccn2CC(=O)Oc2ccccc2-c2ccccc2)c1
logP [9]: 2.3

Structure (SMILES): CCN(N=O)C(N)=O
logD [6]: -0.15

Structure (SMILES): CC12CCC(=O)C=C1CCC1C2C(O)CC2(C)C1CCC2(O)C(=O)COC(=O)CCC(=O)O (stereo not given)
logD ([10]; pH 2.5): 2.11

Structure (SMILES): CCC(C)[N+](=O)[O-] (stereo not given)
logP [11]: 1.2

Structure (SMILES): Nc1c(Oc2ccccc2)c(Oc2ccccc2)c(N)c2c1C(=O)c1ccccc1C2=O
logP [1]: 5.19

Structure (SMILES): CCCCCC[N+](=O)[O-]
logP [11]: 2.7

Structure (SMILES): Oc1cccc(-c2c3nc(c(-c4cccc(O)c4F)c4ccc([nH]4)c(-c4cccc(O)c4F)c4nc(c(-c5cccc(O)c5F)c5ccc2[nH]5)C=C4)C=C3)c1F
logD [4]: 4.6

Structure (SMILES): CN(CCCNCCc1ccc(O)c2[nH]c(=O)sc12)S(=O)(=O)CCCOCCc1ccccc1
logD [5]: 1.24

Structure (SMILES): CCOCn1c(S)nc(=O)c(CC)c1Sc1ccccc1
logP [12]: 3.05

Structure (SMILES): O=c1[nH]c2c(O)ccc(CCNCCCS(=O)(=O)CCOCCc3ccccc3)c2s1
logD [5]: 1.13

Structure (SMILES): OCC(O)COc1ccc(-c2c3nc(c(-c4ccc(OCC(O)CO)cc4)c4ccc([nH]4)c(-c4ccc(OCC(O)CO)cc4)c4nc(c(-c5ccc(OCC(O)CO)cc5)c5ccc2[nH]5)C=C4)C=C3)cc1 (stereo not given)
logD [4]: 4.93

Structure (SMILES): CN(CCCSCCOCCc1ccccc1)CCc1ccc(O)c2[nH]c(=O)sc12
logD [5]: 3.53

Structure (SMILES): C[C@]12CCC(=O)C=C1CC[C@@H]1[C@@H]2[C@@H](O)C[C@@]2(C)[C@H]1CC[C@]2(O)C(=O)COC(=O)CCCCCO
logP [10]: 2.79

Structure (SMILES): O=[N+]([O-])c1cc(S(=O)(=O)Nc2ccccc2)ccc1Nc1ccccc1
logP [1]: 3.62

Structure (SMILES): O=C(CCc1cccc2c1OCO2)N1CCC2(CC1)C(=O)NCN2c1ccccc1
logD [7]: 2.8

Structure (SMILES): FC(F)(F)C(F)(F)Cl
logP: 2.23

Structure (SMILES): CC(C)c1ccc(OP(=O)(Oc2ccccc2)Oc2ccccc2)cc1
logP [14]: 5.31

Structure (SMILES): COC(=O)CCC(=O)OCC(=O)C1(O)CCC2C3CCC4=CC(=O)CCC4(C)C3C(O)CC21C (stereo not given)
logP [10]: 2.58

Structure (SMILES): O=c1oc2ccc(Cl)cc2cc1C1=Nn2c(nnc2-c2ccc(Br)cc2)SC1
logD [15]: 1.51

Structure (SMILES): CC(C)CN(N=O)C(N)=O
logD [6]: 1.04

Structure (SMILES): O=c1oc2ccc(Cl)cc2cc1C1=Nn2c(COc3ccc(Cl)cc3)nnc2SC1
logD [15]: 1.33

Structure (SMILES): O=C(OCc1ccc2snnc2c1)N1CCC2(CC1)C(=O)NCN2c1ccccc1
logD [7]: 3.4

Structure (SMILES): CC(C)C[N+](=O)[O-]
logP [11]: 1.4

Structure (SMILES): CN(C)C(=O)CCC(=O)OCC(=O)[C@@]1(O)CC[C@H]2[C@@H]3CCC4=CC(=O)CC[C@]4(C)[C@H]3[C@@H](O)C[C@@]21C
logP [10]: 2.03

Structure (SMILES): O=c1oc2ccc(Cl)cc2cc1C1=Nn2c(nnc2-c2ccccc2Cl)SC1
logD [15]: 1.53

Structure (SMILES): NNc1nc(NN)nc(Nc2ccccc2)n1
logP [3]: 1.07

Structure (SMILES): CCCCCCCCCCOc1ccc(OC(=O)Cn2ccc3cc(C(=O)O)ccc32)cc1
logP [9]: 7.1

Structure (SMILES): FC(F)(Cl)Cl
logP: 1.93

Structure (SMILES): CCCCC(CC)COP(=O)(OCC(CC)CCCC)OCC(CC)CCCC (stereo not given)
logP [14]: 4.23

Structure (SMILES): O=c1oc2ccc(Cl)cc2cc1C1=Nn2c(nnc2-c2ccc(Cl)cc2)SC1
logD [15]: 1.49

Structure (SMILES): COc1cc([N+](=O)[O-])cc(C=CC(=O)N2CCC3(CC2)C(=O)NCN3c2ccccc2)c1OC
logD [7]: 3

Structure (SMILES): CC(C)[N+](=O)[O-]
logP [11]: 0.8

Structure (SMILES): O=c1oc2ccc(Cl)cc2cc1C1=Nn2c(nnc2-c2ccncc2)SC1
logD [15]: 1.18

Structure (SMILES): C[C@]12CCC(=O)C=C1CC[C@@H]1[C@@H]2[C@@H](O)C[C@@]2(C)[C@H]1CC[C@]2(O)C(=O)COC(=O)CCCCCC(=O)O
logD ([10]; pH 3.3): 3.26

Structure (SMILES): CC(C)(CNCCc1ccc(O)c2[nH]c(=O)sc12)CSCCOCCc1ccccc1
logD [5]: 3.44

Structure (SMILES): NC(=O)N(CCCN(N=O)C(N)=O)N=O
logD [6]: -0.3

Structure (SMILES): Cc1ccc(OP(=O)(Oc2ccc(C)cc2)Oc2ccc(C)cc2)cc1
logP [14]: 5.11

Structure (SMILES): Ic1ccc2nc(-c3ccc(-c4nccs4)cc3)cn2c1
logP [16]: 3.06

Structure (SMILES): OCC(O)COc1c(F)ccc(-c2c3nc(c(-c4ccc(F)c(OCC(O)CO)c4F)c4ccc([nH]4)c(-c4ccc(F)c(OCC(O)CO)c4F)c4nc(c(-c5ccc(F)c(OCC(O)CO)c5F)c5ccc2[nH]5)C=C4)C=C3)c1F (stereo not given)
logD [4]: 2.51

Structure (SMILES): CC(C)(C)c1ccc(OP(=O)(Oc2ccccc2)Oc2ccccc2)cc1
logP [14]: 5.12

Structure (SMILES): CCCCCCCCc1ccc(OC(=O)Cn2ccc3cc(C(N)=O)ccc32)cc1
logP [9]: 5.5

Structure (SMILES): FC(F)(Cl)C(F)(F)Cl
logP: 2.66

Structure (SMILES): CC(C)CCCCCCCOP(=O)(Oc1ccccc1)Oc1ccccc1
logP [14]: 5.44

More lines, now with the values ahead:

logP [1]: 3.74
Structure (SMILES): Cc1c(O)c(C#N)c(C)c(N=Nc2ccc(Cl)c(Cl)c2)c1O

logD [2]: 0.86
Structure (SMILES): Cc1cn([C@H]2C[C@H](N=[N+]=[N-])[C@@H](COC(=O)C3=CN(C)C=CC3)O2)c(=O)[nH]c1=O

logD [2]: 1.25
Structure (SMILES): CC1=C(/C=C/C(C)=C/C=C/C(C)=C/C(=O)OC[C@H]2O[C@@H](n3cc(C)c(=O)[nH]c3=O)C[C@@H]2N=[N+]=[N-])C(C)(C)CCC1

logD [2]: 0.34
Structure (SMILES): Cc1cn([C@H]2C[C@H](N=[N+]=[N-])[C@@H](COC(=O)CN3CCOCC3)O2)c(=O)[nH]c1=O

logP [8]: 4.79
Structure (SMILES): CCCN1C=CCC(C(=O)OC2CCC3C4CCc5cc(O)ccc5C4CC23C)=C1 (stereo not given)

logP [8]: 4.66
Structure (SMILES): CCN1C=CCC(C(=O)OC2CCC3C4CCc5cc(O)ccc5C4CC23C)=C1 (stereo not given)

logP [8]: 4.89
Structure (SMILES): CC12CC3c4ccc(O)cc4CCC3C1CCC2OC(=O)C1=CN(CCCO)C=CC1 (stereo not given)

logP [8]: 5.07
Structure (SMILES): CCCCCCN1C=CCC(C(=O)OC2CCC3C4CCc5cc(O)ccc5C4CC23C)=C1 (stereo not given)

logP [13]: 0.79
Structure (SMILES): Cc1cn(C2CC(N=[N+]=[N-])C(COP(=O)(OCC3OC(n4cc(C)c(=O)[nH]c4=O)CC3N=[N+]=[N-])C(O)c3ccccc3)O2)c(=O)[nH]c1=O (stereo not given)

logD [2]: 0.96
Structure (SMILES): Cc1cn([C@H]2C[C@H](N=[N+]=[N-])[C@@H](COC(=O)CN3CCN(c4ccccc4)CC3)O2)c(=O)[nH]c1=O

logP [12]: 2.78
Structure (SMILES): CCOCn1c(Cc2cc(C)cc(C)c2)c(CC)c(=O)[nH]c1=O

logP [9]: 3.1
Structure (SMILES): O=C(Cn1ccc2cc(C(=O)O)ccc21)Oc1cccc(-c2ccccc2)c1

logP [1]: 4.44
Structure (SMILES): COc1cc(/N=N/c2c(Br)cc([N+](=O)[O-])cc2[N+](=O)[O-])c(NC(C)=O)cc1N(CCOC(C)=O)CCOC(C)=O

logD [2]: 0.52
Structure (SMILES): Cc1cn(C2CC(N=[N+]=[N-])C(COC(=O)C(N)Cc3ccccc3)O2)c(=O)[nH]c1=O (stereo not given)

logP [12]: 2.35
Structure (SMILES): CCOCn1c(Cc2ccccc2)c(C(C)C)c(=O)[nH]c1=O

logP [1]: 4.08
Structure (SMILES): CC(=O)CCC(C#N)Nc1ccc(N=Nc2nc3ccc([N+](=O)[O-])cc3s2)cc1 (stereo not given)

logP [13]: 0.49
Structure (SMILES): Cc1cn(C2CC(N=[N+]=[N-])C(COP(=O)(OCC3OC(n4cc(C)c(=O)[nH]c4=O)CC3N=[N+]=[N-])C(O)c3ccc(C#N)cc3)O2)c(=O)[nH]c1=O (stereo not given)

logP [13]: 0.79
Structure (SMILES): Cc1cn(C2CC(N=[N+]=[N-])C(COP(=O)(OCC3OC(n4cc(C)c(=O)[nH]c4=O)CC3N=[N+]=[N-])C(O)c3cccc([N+](=O)[O-])c3)O2)c(=O)[nH]c1=O (stereo not given)

logP [8]: 5.39
Structure (SMILES): CC12CC3c4ccc(O)cc4CCC3C1CCC2OC(=O)C1=CN(Cc2ccccc2)C=CC1 (stereo not given)

logP [9]: 3.2
Structure (SMILES): O=C(Cn1ccc2cc(C(=O)O)ccc21)Oc1ccc(-c2ccccc2)cc1

logP [13]: 0.73
Structure (SMILES): Cc1cn(C2CC(N=[N+]=[N-])C(COP(=O)(OCC3OC(n4cc(C)c(=O)[nH]c4=O)CC3N=[N+]=[N-])C(O)c3c([N+](=O)[O-])cccc3[N+](=O)[O-])O2)c(=O)[nH]c1=O (stereo not given)

logP [13]: 0.79
Structure (SMILES): Cc1cn(C2CC(N=[N+]=[N-])C(COP(=O)(OCC3OC(n4cc(C)c(=O)[nH]c4=O)CC3N=[N+]=[N-])C(O)c3ccccc3[N+](=O)[O-])O2)c(=O)[nH]c1=O (stereo not given)

logP [12]: 2.11
Structure (SMILES): CCOCn1c(Sc2ccccc2)c(CC)c(=O)[nH]c1=O

logP [12]: 3.23
Structure (SMILES): CCc1c(Sc2ccccc2)n(COCc2ccccc2)c(=O)[nH]c1=O
